Assay results taken from paper PMC10974284, “Discovery of Novel 4-Hydroxyquinazoline Derivatives: In Silico, In Vivo and In Vitro Studies Using Primary PARPi-Resistant Cell Lines” (Molecules, 2024).
Read-outs that look alike come from different tables or passages of the source.

Assays:
[1] = tested on: HCC1937 cell lines; assay: MTT cytotoxicity assay, HCC1937; assay type: cell-based, human; settings: Homo sapiens, read-out: IC50 HCC1937
Procedure: (§1) After treatment with target compounds at the different concentrations, MTT was added and the cells were incubated for another 4 h. The IC50 values of the selected compounds were evaluated by the same method. The cells were treated with compounds at different concentrations. The OD values were detected using a microplate reader at 570 nm.

[2] = tested on: HCT-15 cell lines; assay: MTT cytotoxicity assay, HCT-15; assay type: cell-based, human; settings: Homo sapiens, read-out: IC50 HCT-15
Procedure: as §1

[3] = HCC1937, 72 h (3-Days) drug exposure, MTT
[4] = HCT-15, 72 h (3-Days) drug exposure, MTT

`O=C(Nc1cc(F)ccc1F)N1CCN(Cc2nc3ccccc3c(=O)[nH]2)CC1` [A20, N-(2,5-difluorophenyl)-4-((4-oxo-3,4-dihydroquinazolin-2-yl)methyl)piperazine-1-carboxamide] gave an IC50 [1, 3] of 41.7 ± 1.89 µM, a melting point of 202.1 to 204.2 °C and an IC50 [2, 4] of 33.1 ± 2.16 µM.

In the case of `O=C(Nc1ccc(F)cc1)N1CCN(Cc2nc3ccccc3c(=O)[nH]2)CC1` [A3, N-(4-fluorophenyl)-4-((4-oxo-3,4-dihydroquinazolin-2-yl)methyl)piperazine-1-carboxamide], the IC50 [1, 3] is reported as > 50 µM, the melting point is reported as 196.5 to 197.8 °C and the IC50 [2, 4] is reported as > 50 µM.

`Cc1ccc(Cl)cc1NC(=O)N1C[C@@H]2C[C@H]1CN2Cc1nc2ccccc2c(=O)[nH]1` [B3, (1S,4S)-N-(5-chloro-2-methylphenyl)-5-((4-oxo-3,4-dihydroquinazolin-2-yl)methyl)-2,5-diazabicyclo[2.2.1]heptane-2-carboxamide] showed an IC50 [1, 3] of 16.5 ± 0.94 µM, a melting point of 191.1 to 192.4 °C and an IC50 [2, 4] of 12.5 ± 1.49 µM.

Work on `O=C(Nc1cccc(Cl)c1)N1CCN(Cc2nc3ccccc3c(=O)[nH]2)CC1` [A5, N-(3-chlorophenyl)-4-((4-oxo-3,4-dihydroquinazolin-2-yl)methyl)piperazine-1-carboxamide] yielded an IC50 [1, 3] of 25.9 ± 0.96 µM, a melting point of 193.3 to 195.2 °C and an IC50 [2, 4] of 19.1 ± 0.79 µM.

For `O=C(Nc1c(F)cccc1Cl)N1CCN(Cc2nc3ccccc3c(=O)[nH]2)CC1` [A25, N-(2-chloro-6-fluorophenyl)-4-((4-oxo-3,4-dihydroquinazolin-2-yl)methyl)piperazine-1-carboxamide], the IC50 [1, 3] was > 50 µM, the melting point was 198.4 to 199.8 °C and the IC50 [2, 4] was 41.2 ± 1.44 µM.

Work on `O=C(Nc1cc(C(F)(F)F)cc(C(F)(F)F)c1)N1CCN(Cc2nc3ccccc3c(=O)[nH]2)CC1` [A39, N-(3,5-bis(trifluoromethyl)phenyl)-4-((4-oxo-3,4-dihydroquinazolin-2-yl)methyl)piperazine-1-carboxamide] yielded an IC50 [1, 3] of 42.2 ± 2.77 µM, a melting point of 204.2 to 206.1 °C and an IC50 [2, 4] of 21 ± 2.33 µM.

For `O=C(Nc1ccc(F)c(Cl)c1)N1CCN(Cc2nc3ccccc3c(=O)[nH]2)CC1` [A36, N-(3-chloro-4-fluorophenyl)-4-((4-oxo-3,4-dihydroquinazolin-2-yl)methyl)piperazine-1-carboxamide], the IC50 [1, 3] was > 50 µM, the melting point was 200.1 to 202.7 °C and the IC50 [2, 4] was 25.2 ± 1.66 µM.

In the case of `Cc1c(F)cccc1NC(=O)N1CCN(Cc2nc3ccccc3c(=O)[nH]2)CC1` [A28, N-(3-fluoro-2-methylphenyl)-4-((4-oxo-3,4-dihydroquinazolin-2-yl)methyl)piperazine-1-carboxamide], the IC50 [1, 3] is reported as > 50 µM, the melting point is reported as 198.9 to 200.6 °C and the IC50 [2, 4] is reported as 30.3 ± 3.3 µM.

With `O=C(Nc1cccc(F)c1)N1CCN(Cc2nc3ccccc3c(=O)[nH]2)CC1` [A2, N-(3-fluorophenyl)-4-((4-oxo-3,4-dihydroquinazolin-2-yl)methyl)piperazine-1-carboxamide] the IC50 [1, 3] was > 50 µM, the melting point was 189.5 to 192.1 °C and the IC50 [2, 4] was 34.9 ± 2.23 µM.

With `O=C(Nc1ccc(C(F)(F)F)cc1)N1CCN(Cc2nc3ccccc3c(=O)[nH]2)CC1` [A15, 4-((4-oxo-3,4-dihydroquinazolin-2-yl)methyl)-N-(4-(trifluoromethyl)phenyl)piperazine-1-carboxamide] the IC50 [1, 3] was > 50 µM, the melting point was 198.8 to 200.6 °C and the IC50 [2, 4] was 15.6 ± 0.56 µM.

In the case of `Cc1ccc(F)c(NC(=O)N2CCN(Cc3nc4ccccc4c(=O)[nH]3)CC2)c1` [A23, N-(2-fluoro-5-methylphenyl)-4-((4-oxo-3,4-dihydroquinazolin-2-yl)methyl)piperazine-1-carboxamide], the IC50 [1, 3] is reported as 44.2 ± 3.47 µM, the melting point is reported as 199.5 to 201.1 °C and the IC50 [2, 4] is reported as 26 ± 1.67 µM.

For `Cc1cc(C)cc(NC(=O)N2CCN(Cc3nc4ccccc4c(=O)[nH]3)CC2)c1` [A38, N-(3,5-dimethylphenyl)-4-((4-oxo-3,4-dihydroquinazolin-2-yl)methyl)piperazine-1-carboxamide], the IC50 [1, 3] was 17.9 ± 1.32 µM, the melting point was 201.5 to 203.3 °C and the IC50 [2, 4] was 18 ± 0.88 µM.

For `Cc1c(Br)cccc1NC(=O)N1CCN(Cc2nc3ccccc3c(=O)[nH]2)CC1` [A31, N-(3-bromo-2-methylphenyl)-4-((4-oxo-3,4-dihydroquinazolin-2-yl)methyl)piperazine-1-carboxamide], the IC50 [1, 3] was > 50 µM, the melting point was 200.6 to 202.2 °C and the IC50 [2, 4] was > 50 µM.

With `O=C(Nc1ccc(Cl)cc1)N1CCN(Cc2nc3ccccc3c(=O)[nH]2)CC1` [A6, N-(4-chlorophenyl)-4-((4-oxo-3,4-dihydroquinazolin-2-yl)methyl)piperazine-1-carboxamide] the IC50 [1, 3] was > 50 µM, the melting point was 189.8 to 191.4 °C and the IC50 [2, 4] was 21.4 ± 0.86 µM.

Molecule `Cc1ccc(Cl)cc1NC(=O)N1C2CCC1CN(Cc1nc3ccccc3c(=O)[nH]1)C2` [B6, N-(5-chloro-2-methylphenyl)-3-((4-oxo-3,4-dihydroquinazolin-2-yl)methyl)-3,8-diazabicyclo[3.2.1]octane-8-carboxamide] has an IC50 ([1]; HCC1937, 72 h) of 7.52 ± 1.37 µM, a melting point of 192.3 to 193.6 °C and an IC50 ([2]; HCT-15, 72 h) of 7.27 ± 1.28 µM.

For `O=C(Nc1cc(Cl)cc(Cl)c1)N1CCN(Cc2nc3ccccc3c(=O)[nH]2)CC1` [A35, N-(3,5-dichlorophenyl)-4-((4-oxo-3,4-dihydroquinazolin-2-yl)methyl)piperazine-1-carboxamide], the IC50 [1, 3] was > 50 µM, the melting point was 207.5 to 209.5 °C and the IC50 [2, 4] was 21.2 ± 0.89 µM.

`Cc1ccc(Cl)cc1NC(=O)N1C2CC1CN(Cc1nc3cc(Cl)ccc3c(=O)[nH]1)C2` [C2, N-(5-chloro-2-methylphenyl)-3-((7-chloro-4-oxo-3,4-dihydroquinazolin-2-yl)methyl)-3,6-diazabicyclo[3.1.1]heptane-6-carboxamide] showed an IC50 ([1]; HCC1937, 72 h) of 32.4 ± 2.66 µM, a melting point of 192.3 to 194.1 °C and an IC50 ([2]; HCT-15, 72 h) of 23 ± 1.93 µM.

For `Cc1ccc(NC(=O)N2CCN(Cc3nc4ccccc4c(=O)[nH]3)CC2)cc1` [A12, 4-((4-oxo-3,4-dihydroquinazolin-2-yl)methyl)-N-(p-tolyl)piperazine-1-carboxamide], the IC50 [1, 3] was > 50 µM, the melting point was 197.7 to 199.5 °C and the IC50 [2, 4] was > 50 µM.

With `Cc1ccc(NC(=O)N2CCN(Cc3nc4ccccc4c(=O)[nH]3)CC2)c(F)c1` [A22, N-(2-fluoro-4-methylphenyl)-4-((4-oxo-3,4-dihydroquinazolin-2-yl)methyl)piperazine-1-carboxamide] the IC50 [1, 3] was > 50 µM, the melting point was 198.4 to 200.7 °C and the IC50 [2, 4] was 21.7 ± 1.16 µM.

For `Cc1cccc(C)c1NC(=O)N1CCN(Cc2nc3ccccc3c(=O)[nH]2)CC1` [A33, N-(2,6-dimethylphenyl)-4-((4-oxo-3,4-dihydroquinazolin-2-yl)methyl)piperazine-1-carboxamide], the IC50 [1, 3] was 39.6 ± 1.35 µM, the melting point was 200.3 to 201.9 °C and the IC50 [2, 4] was 35 ± 2.28 µM.

In the case of `Cc1ccc(Cl)cc1NC(=O)N1CCN(Cc2nc3ccccc3c(=O)[nH]2)CC1` [A32, N-(5-chloro-2-methylphenyl)-4-((4-oxo-3,4-dihydroquinazolin-2-yl)methyl)piperazine-1-carboxamide], the IC50 [1, 3] is reported as 11.3 ± 0.73 µM, the melting point is reported as 203.1 to 204.7 °C and the IC50 [2, 4] is reported as 10.9 ± 0.71 µM.

For `O=C(Nc1ccccc1F)N1CCN(Cc2nc3ccccc3c(=O)[nH]2)CC1` [A1, N-(2-fluorophenyl)-4-((4-oxo-3,4-dihydroquinazolin-2-yl)methyl)piperazine-1-carboxamide], the IC50 [1, 3] was 16.6 ± 1.12 µM, the melting point was 192.5 to 194.2 °C and the IC50 [2, 4] was 18.4 ± 0.91 µM.
